For 27 molecules, IC50 results are on record in PubChem BioAssay AID1361 (SRMLSC, 2008).

Active and inactive are the calls of the source. The rule behind the calls is not given here.

The nature of this test: mitochondrial fusion inhibitors, confirmation, cell-based, chemical genetic, wild-type and mutant (AID 1361). The following applies: Cell-based mitochondrial fusion phenotype, imaging.
Setting [1] is: mutant cells, measured here: mutant cell line IC50.

For the molecule `COC(=O)C1=C(O)C(C(=O)OC)C(c2ccc(C)cc2)C(C#N)(C#N)C1c1ccc(C)cc1` (centres undefined), the half-maximal inhibitory concentration (IC50) (commonly the concentration at which inhibition is half-maximal) was 4.71 µM (WT cells) and > 25 µM under setting [1].

In the case of `O=C(CNC(=S)N(Cc1ccccc1)Cc1ccccc1F)NCCc1ccc(Cl)cc1`, the IC50 was 4.01 µM (WT cells) and > 25 µM under setting [1].

Regarding `Cc1cc(CC(C)C)n(-c2nc3ccccc3c(=O)n2OCc2ccccc2)n1`, the IC50 reads like this: (WT cells) > 25 µM (inactive); under setting [1], > 25 µM.

On to `Nn1c(SCC(=O)Nc2ccc3c(c2)OCO3)nnc1-c1ccncc1`, for which the IC50 runs as follows: (WT cells) > 25 µM (inactive); under setting [1], > 25 µM.

`C/C(=C\C(=O)c1ccccc1)Nc1cccc(O)c1`: the IC50 was > 25 µM (inactive) (WT cells) and > 25 µM under setting [1].

Turning to `Cc1cc(-c2sccc2C)nc(-n2cccc2)n1`, the IC50 is > 25 µM (inactive) (WT cells) and > 25 µM under setting [1].

With `O=C(CNC(=S)N(Cc1ccccc1)Cc1cccs1)NCc1ccc(F)cc1`, the IC50 is > 25 µM (inactive) (WT cells) and > 25 µM under setting [1].

For the molecule `CC1CC(C)CN(c2ncnc3c2cnn3Cc2ccc(Cl)cc2)C1` (centres undefined), the IC50 was 12.8 µM (WT cells) and 17.9 µM under setting [1].

Consider `CC1=CCC[C@@H]2[C@@](C)(CC/C(C)=C/C(=O)O)[C@H](C)CC[C@@]12C`, for which the half-maximal inhibitory concentration (IC50) by setting is: (WT cells) 21.7 µM; under setting [1], > 25 µM.

For `Cc1cccc(NC(=O)c2ccc(N3CCCCC3)c([N+](=O)[O-])c2)n1`, the IC50 is, setting by setting: (WT cells) > 25 µM (inactive); under setting [1], > 25 µM.

As for `Cn1cc(C(=O)c2ccc(Cl)cc2Cl)cc1C(=O)O`, the IC50 (WT cells) is > 25 µM (inactive) and the IC50 under setting [1] is > 25 µM.

Consider `CC(=O)N(C)c1nnc(-c2cnccn2)s1`, for which the IC50 (WT cells) was > 25 µM (inactive) and the 50% inhibitory concentration (IC50) under setting [1] is > 25 µM.

With `N#Cc1ccccc1Sc1ccccc1C(=O)Nc1ccc(Br)cc1`, the IC50 is > 25 µM (inactive) (WT cells) and > 25 µM under setting [1].

As to `O=C(COC(=O)CC(c1ccccc1)c1ccccc1)NCc1ccc(Cl)cc1`, the IC50 runs as follows: (WT cells) 14.7 µM; under setting [1], > 25 µM.

Consider `Cc1nc2cc(C(=O)OCC(=O)NC34CC5CC(CC(C5)C3)C4)ccc2n1-c1ccccc1`, for which the IC50 reads like this: (WT cells) 21.9 µM; under setting [1], > 25 µM.

Regarding `CCCCc1ccc(NC(=S)Nc2ccc(Cl)c(S(=O)(=O)N(C)C)c2)cc1`, the IC50 is, setting by setting: (WT cells) 9.48 µM; under setting [1], > 25 µM.

With `COC(=O)CN1C(c2cccc(Cl)c2)=Nc2ccc(Cl)cc2C1c1ccccc1` (centres undefined), the IC50 was 7.73 µM (WT cells) and 24 µM under setting [1].

As to `Cc1nnc(SCC(=O)N2c3ccccc3C(C)(c3ccc(Cl)cc3)CC2(C)C)s1` (centres undefined), the concentration for half-maximal inhibition (IC50) is 5.21 µM (WT cells) and > 25 µM under setting [1].

On to `Clc1ccc(CNc2nc(CN3CCOCC3)nc3scc(-c4ccccc4)c23)cc1`, for which the IC50 (WT cells) was 13.2 µM and the 50% inhibitory concentration (IC50) under setting [1] amounted to 17.9 µM.

In the case of `CC(C)(C)n1nnnc1C(c1ccc(F)cc1)N(Cc1ccc(F)cc1)Cc1ccco1` (centres undefined), the concentration for half-maximal inhibition (IC50) was 14.6 µM (WT cells) and > 25 µM under setting [1].

For `c1ccc2c(c1)sc1nnnn12`, the IC50 by setting is: (WT cells) > 25 µM (inactive); under setting [1], > 25 µM.

As to `CCOC(=O)c1c(-c2ccc(C)cc2)csc1NC(=O)C1CCCO1` (centres undefined), the IC50 runs as follows: (WT cells) > 25 µM (inactive); under setting [1], > 25 µM.

For the molecule `CCc1cc(-c2n[nH]c(=S)n2CC(C)C)cs1`, the IC50 reads like this: (WT cells) > 25 µM (inactive); under setting [1], > 25 µM.

Consider `O=c1c2c3c(sc2nc2n1CCC2)CCC3`, for which the IC50 runs as follows: (WT cells) > 25 µM (inactive); under setting [1], > 25 µM.

As for `Cc1cccc(N/N=C(\C=N\N)C(=O)c2ccc(Br)cc2)c1`, the IC50 is, setting by setting: (WT cells) > 25 µM (inactive); under setting [1], > 25 µM.

Regarding `CC(C)C(=O)Nc1ccc(C(=O)NNC(=O)CCCOc2ccc(Cl)cc2Cl)cc1`, the IC50 was > 25 µM (inactive) (WT cells) and > 25 µM under setting [1].

In the case of `Cc1sc(NC(=O)c2ccco2)c(C(c2ccc(F)cc2)N2CCN(C)CC2)c1C` (centres undefined), the IC50 by setting is: (WT cells) 14.4 µM (inactive); under setting [1], > 12.5 µM.
